Patent US7829568B2, “Substituted 5,6,7,8-tetrahydroimidazo[1,2-a]pyridin-2-ylamine compounds and their use for producing drugs” (Gruenenthal GmbH, priority 2005, dated 2010)

System: batrachotoxin (BTX) binding site of the sodium channel
Experiment: Affinity to the batrachotoxin (BTX) binding site of the sodium channel
Set-up: species or system rat

| Molecule | BTX inhibition (rat) (% inhibition) ([3H]-batrachotoxinin A20 α-benzoate 10 nM, synaptosomes from rat cerebral cortex, test concentration not given) | Kd (radioligand at BTX binding site, rat cerebral cortex synaptosomes) |
| --- | --- | --- |
| CCCCN(C(=O)c1cccc(Cl)c1)c1nc2n(c1C(=O)Nc1ccc(NC(=O)OC(C)(C)C)cc1)CCCC2 [Example 189, [4-({2-[butyl-(3-chloro-benzoyl)-amino]-5,6,7,8-tetrahydro-imidazo[1,2-a]pyridine-3-carbonyl}-amino)-phenyl]-carbamic acid tert-butyl ester] | 93% | – |
| [^3H]-batrachotoxinin A20 α-benzoate [reference compound] | – | 24.6 ± 1.56 nM |
